Measurements from ChEMBL document CHEMBL3217457, “Carbazolepyrrolo[2,1-c][1,4]benzodiazepine conjugates: design, synthesis, and biological evaluation” (Medchemcomm, 2011).

What was measured:
[1] = tested on: PC-3; assay: Growth inhibition of human PC3 cells; type: functional
[2] = tested on: DU-145; assay: Growth inhibition of human DU145 cells; type: functional
[3] = tested on: SK-MEL-28; assay: Growth inhibition of human SK-MEL-28 cells; type: functional
[4] = tested on: SK-MEL-5; assay: Growth inhibition of human SK-MEL-5 cells; type: functional
[5] = Growth inhibition of human UACC257 cells; type: functional; details: UACC-257
[6] = Growth inhibition of human UACC62 cells; type: functional; details: UACC-62
[7] = tested on: A549; assay: Growth inhibition of human A549 cells; type: functional
[8] = tested on: KB; assay: Growth inhibition of human KB cells; type: functional
[9] = Growth inhibition of human Gurav cells; type: functional
[10] = tested on: A2780; assay: Growth inhibition of human A2780 cells; type: functional
[11] = tested on: SiHa; assay: Growth inhibition of human SiHa cells; type: functional
[12] = tested on: ZR-75-1; assay: Growth inhibition of human ZR-75-1 cells; type: functional
[13] = tested on: MCF7; assay: Cell cycle arrest in human MCF7 cells assessed as accumulation at G0 phase at 4 uM after 24 hrs by propidium iodide staining based flow cytometry (reference value: 2.77%); type: functional
[14] = tested on: MCF7; assay: Cell cycle arrest in human MCF7 cells assessed as accumulation at G1 phase at 4 uM after 24 hrs by propidium iodide staining based flow cytometry (reference value: 57.98%); type: functional
[15] = tested on: MCF7; assay: Cell cycle arrest in human MCF7 cells assessed as accumulation at S phase at 4 uM after 24 hrs by propidium iodide staining based flow cytometry (reference value: 14.30%); type: functional
[16] = tested on: MCF7; assay: Cell cycle arrest in human MCF7 cells assessed as accumulation at G2/M phase at 4 uM after 24 hrs by propidium iodide staining based flow cytometry (reference value: 24.95%); type: functional
[17] = tested on: MCF7; assay: Cell cycle arrest in human MCF7 cells assessed as accumulation at G0/G1 phase at 4 uM after 24 hrs by propidium iodide staining based flow cytometry (reference value: 60.75%); type: functional
[18] = tested on: Calf thymus DNA; assay: Binding affinity to calf thymus DNA assessed as change in melting temperature at compound to DNA ratio of 1:5 after 18 hrs by thermal denaturation analysis; type: nucleic-acid assay; details: Bos taurus
[19] = tested on: CCRF-CEM; assay: Growth inhibition of human CCRF-CEM cells; type: functional
[20] = tested on: HL-60(TB); assay: Growth inhibition of human HL-60(TB) cells; type: functional
[21] = tested on: K562; assay: Growth inhibition of human K562 cells; type: functional
[22] = Growth inhibition of human MOLT4 cells; type: functional; details: MOLT-4
[23] = tested on: RPMI-8226; assay: Growth inhibition of human RPMI8226 cells; type: functional
[24] = tested on: SR; assay: Growth inhibition of human SR cells; type: functional
[25] = tested on: A549; assay: Growth inhibition of human A549/ATCC cells; type: functional
[26] = Growth inhibition of human EKVX cells; type: functional
[27] = tested on: HOP-62; assay: Growth inhibition of human HOP62 cells; type: functional
[28] = Growth inhibition of human HOP92 cells; type: functional; details: HOP-92
[29] = tested on: NCI-H226; assay: Growth inhibition of human NCI-H226 cells; type: functional
[30] = tested on: NCI-H23; assay: Growth inhibition of human NCI-H23 cells; type: functional
[31] = tested on: NCI-H322M; assay: Growth inhibition of human NCI-H322M cells; type: functional
[32] = tested on: NCI-H460; assay: Growth inhibition of human NCI-H460 cells; type: functional
[33] = tested on: NCI-H522; assay: Growth inhibition of human NCI-H522 cells; type: functional
[34] = tested on: COLO 205; assay: Growth inhibition of human COLO205 cells; type: functional
[35] = Growth inhibition of human HCC2998 cells; type: functional; details: HCC 2998
[36] = tested on: HCT-116; assay: Growth inhibition of human HCT116 cells; type: functional
[37] = Growth inhibition of human HCT15 cells; type: functional; details: HCT-15
[38] = tested on: HT-29; assay: Growth inhibition of human HT-29 cells; type: functional
[39] = tested on: KM12; assay: Growth inhibition of human KM12 cells; type: functional
[40] = tested on: SW-620; assay: Growth inhibition of human SW620 cells; type: functional
[41] = tested on: SF-268; assay: Growth inhibition of human SF268 cells; type: functional
[42] = Growth inhibition of human SF539 cells; type: functional; details: SF-539
[43] = tested on: SNB-19; assay: Growth inhibition of human SNB19 cells; type: functional
[44] = tested on: SNB-75; assay: Growth inhibition of human SNB75 cells; type: functional
[45] = tested on: U-251; assay: Growth inhibition of human U251 cells; type: functional
[46] = Growth inhibition of human LOXIMVI cells; type: functional; details: LOX IMVI
[47] = tested on: Malme-3M; assay: Growth inhibition of human MALME-3M cells; type: functional
[48] = tested on: M14; assay: Growth inhibition of human M14 cells; type: functional
[49] = tested on: SK-MEL-2; assay: Growth inhibition of human SK-MEL-2 cells; type: functional
[50] = tested on: IGROV-1; assay: Growth inhibition of human IGROV1 cells; type: functional
[51] = Growth inhibition of human OVCAR3 cells; type: functional; details: OVCAR-3
[52] = Growth inhibition of human OVCAR4 cells; type: functional; details: OVCAR-4
[53] = Growth inhibition of human OVCAR5 cells; type: functional; details: OVCAR-5
[54] = Growth inhibition of human OVCAR8 cells; type: functional; details: OVCAR-8
[55] = tested on: SK-OV-3; assay: Growth inhibition of human SKOV3 cells; type: functional
[56] = tested on: 786-0; assay: Growth inhibition of human 786-0 cells; type: functional
[57] = tested on: A498; assay: Growth inhibition of human A498 cells; type: functional
[58] = tested on: ACHN; assay: Growth inhibition of human ACHN cells; type: functional
[59] = tested on: CAKI-1; assay: Growth inhibition of human CAKI-1 cells; type: functional
[60] = Growth inhibition of human RXF393 cells; type: functional; details: RXF 393
[61] = tested on: SN12C; assay: Growth inhibition of human SN12C cells; type: functional
[62] = tested on: TK-10; assay: Growth inhibition of human TK10 cells; type: functional
[63] = Growth inhibition of human UO31 cells; type: functional; details: UO-31
[64] = tested on: MCF7; assay: Growth inhibition of human MCF7 cells; type: functional
[65] = Growth inhibition of human MDA-MB cells; type: functional
[66] = Growth inhibition of human Hs 578T cells; type: functional
[67] = tested on: MDA-MB-435; assay: Growth inhibition of human MDA-MB-435 cells; type: functional
[68] = Growth inhibition of human BT549 cells; type: functional; details: BT-549
[69] = tested on: T47D; assay: Growth inhibition of human T47D cells; type: functional
[70] = tested on: MDA-MB-468; assay: Growth inhibition of human MDA-MB-468 cells; type: functional

COc1cc2c(cc1OCCCCCn1c3ccccc3c3ccccc31)N=C[C@@H]1CCCN1C2=O
GI50 [1]: 2300 nM | GI50 [2]: 2230 nM | GI50 [3]: 1800 nM | GI50 [4]: 1730 nM | GI50 [5]: 2290 nM | GI50 [6]: 1860 nM | GI50 [7]: 1420 nM | GI50 [8]: 1800 nM | GI50 [9]: 1610 nM | GI50 [10]: 1320 nM | GI50 [11]: 1680 nM | GI50 [12]: 1760 nM | Activity [13]: 3.45% | Activity [14]: 68.24% | Activity [15]: 13.03% | Activity [16]: 15.38% | Activity [17]: 71.69% | ΔTm [18]: 4.9 °C | GI50 [19]: 1970 nM | GI50 [20]: 1720 nM | GI50 [21]: 2600 nM | GI50 [22]: 2150 nM | GI50 [23]: 1720 nM | GI50 [24]: 1540 nM | GI50 [25]: 1570 nM | GI50 [26]: 5270 nM | GI50 [27]: 1800 nM | GI50 [28]: 1310 nM | GI50 [29]: 2490 nM | GI50 [30]: 2690 nM | GI50 [31]: 3830 nM | GI50 [32]: 1960 nM | GI50 [33]: 1650 nM | GI50 [34]: 1640 nM | GI50 [35]: 1710 nM | GI50 [36]: 1650 nM | GI50 [37]: 1670 nM | GI50 [38]: 2080 nM | GI50 [39]: 1960 nM | GI50 [40]: 1850 nM | GI50 [41]: 1910 nM | GI50 [42]: 1850 nM | GI50 [43]: 2050 nM | GI50 [44]: 1050 nM | GI50 [45]: 1590 nM | GI50 [46]: 2080 nM | GI50 [47]: 2200 nM | GI50 [48]: 2100 nM | GI50 [49]: 1670 nM | GI50 [50]: 2080 nM | GI50 [51]: 1880 nM | GI50 [52]: 3090 nM | GI50 [53]: 2420 nM | GI50 [54]: 2550 nM | GI50 [55]: 4570 nM | GI50 [56]: 1730 nM | GI50 [57]: 1740 nM | GI50 [58]: 1770 nM | GI50 [59]: 1930 nM | GI50 [60]: 4340 nM | GI50 [61]: 1940 nM | GI50 [62]: 2250 nM | GI50 [63]: 1520 nM | GI50 [64]: 1640 nM | GI50 [65]: 2140 nM | GI50 [66]: 1970 nM | GI50 [67]: 1730 nM | GI50 [68]: 2030 nM | GI50 [69]: 2790 nM | GI50 [70]: 2260 nM
